Broadly, the Km is the substrate concentration at which the rate is half of its maximum.

Drawing on ChEMBL document CHEMBL2073873, “Identification of a novel human organic anion transporting polypeptide as a high affinity thyroxine transporter” (Mol Endocrinol, 2002), this text covers Activity and Km for 15 molecules.

Residues, ends and D or L forms follow the SMILES beside them.

T1: Solute carrier organic anion transporter family member 1C1 (Homo sapiens, UniProt Q9NYB5)
T1 sequence (Q9NYB5 whole entry): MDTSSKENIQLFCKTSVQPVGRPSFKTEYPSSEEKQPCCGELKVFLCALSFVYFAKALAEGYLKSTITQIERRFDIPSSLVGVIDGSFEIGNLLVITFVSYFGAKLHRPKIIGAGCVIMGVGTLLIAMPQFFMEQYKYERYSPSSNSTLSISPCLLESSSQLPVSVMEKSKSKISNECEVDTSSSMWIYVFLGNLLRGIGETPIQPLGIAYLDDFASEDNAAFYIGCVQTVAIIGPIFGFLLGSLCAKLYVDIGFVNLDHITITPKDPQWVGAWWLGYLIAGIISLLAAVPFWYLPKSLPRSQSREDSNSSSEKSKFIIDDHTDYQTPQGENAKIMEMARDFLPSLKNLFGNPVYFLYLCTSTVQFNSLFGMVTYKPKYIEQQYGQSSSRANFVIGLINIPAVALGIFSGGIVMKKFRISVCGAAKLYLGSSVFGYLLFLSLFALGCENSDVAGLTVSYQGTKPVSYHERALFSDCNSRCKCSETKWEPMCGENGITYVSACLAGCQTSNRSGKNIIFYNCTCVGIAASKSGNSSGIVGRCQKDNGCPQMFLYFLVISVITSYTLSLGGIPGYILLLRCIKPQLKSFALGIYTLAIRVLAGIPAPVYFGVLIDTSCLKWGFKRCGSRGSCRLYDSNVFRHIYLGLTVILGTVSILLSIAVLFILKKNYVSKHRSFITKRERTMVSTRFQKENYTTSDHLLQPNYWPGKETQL

B1: Solute carrier organic anion transporter family member 1C1 (Homo sapiens) (protein)
chain: MDTSSKENIQLFCKTSVQPVGRPSFKTEYPSSEEKQPCCGELKVFLCALSFVYFAKALAEGYLKSTITQIERRFDIPSSLVGVIDGSFEIGNLLVITFVSYFGAKLHRPKIIGAGCVIMGVGTLLIAMPQFFMEQYKYERYSPSSNSTLSISPCLLESSSQLPVSVMEKSKSKISNECEVDTSSSMWIYVFLGNLLRGIGETPIQPLGIAYLDDFASEDNAAFYIGCVQTVAIIGPIFGFLLGSLCAKLYVDIGFVNLDHITITPKDPQWVGAWWLGYLIAGIISLLAAVPFWYLPKSLPRSQSREDSNSSSEKSKFIIDDHTDYQTPQGENAKIMEMARDFLPSLKNLFGNPVYFLYLCTSTVQFNSLFGMVTYKPKYIEQQYGQSSSRANFVIGLINIPAVALGIFSGGIVMKKFRISVCGAAKLYLGSSVFGYLLFLSLFALGCENSDVAGLTVSYQGTKPVSYHERALFSDCNSRCKCSETKWEPMCGENGITYVSACLAGCQTSNRSGKNIIFYNCTCVGIAASKSGNSSGIVGRCQKDNGCPQMFLYFLVISVITSYTLSLGGIPGYILLLRCIKPQLKSFALGIYTLAIRVLAGIPAPVYFGVLIDTSCLKWGFKRCGSRGSCRLYDSNVFRHIYLGLTVILGTVSILLSIAVLFILKKNYVSKHRSFITKRERTMVSTRFQKENYTTSDHLLQPNYWPGKETQL

One series concerns the target T1, Solute carrier organic anion transporter family member 1C1. Briefly: (§1) TP_TRANSPORTER: uptake in OATP-F-expressing CHO cells. It counts as functional, cell-based. The following applies: hamster.
In the case of `C=C[C@H]1C[N+]2(C)CC[C@H]1C[C@H]2[C@H](O)c1ccnc2ccc(OC)cc12`, the Activity result is “is not a substrate [-]”.

For `CC1(C)SSC(C)(C)[C@@H](NC(=O)[C@@H](N)Cc2ccc(O)cc2)C(=O)NCC(=O)N[C@@H](Cc2ccccc2)C(=O)N[C@H]1C(=O)O`, the Activity result was “is not a substrate [-]”.

Consider `CC(C)C[C@@H]1NC(=O)[C@@H](C(C)C)NC(=O)[C@@H]2CCCN2C(=O)[C@@H](CC(=O)O)NC(=O)[C@@H](Cc2c[nH]c3ccccc23)NC1=O` [BQ-123] (HELM PEPTIDE1{L.[dW].[dD].P.[dV]}$PEPTIDE1,PEPTIDE1,1:R1-5:R2$$$V2.0), for which the Activity entry was “is not a substrate [-]”.

Turning to `CC(C)[C@H](NC(=O)[C@H](CCC(=O)O)NC(=O)[C@H](Cc1ccccc1)NC(=O)[C@@H](C)NC(=O)[C@@H](N)Cc1ccc(O)cc1)C(=O)N[C@H](C(=O)NCC(N)=O)C(C)C` [DELTORPHIN II], the Activity result is “is not a substrate [-]”.

For `CCCCC[C@H](O)/C=C/[C@H]1[C@H](O)CC(=O)[C@@H]1C/C=C\CCCC(=O)O` [DINOPROSTONE], the Activity entry is “is not a substrate [-]”.

As to `C[C@]12CC[C@@H]3c4ccc(O)cc4CC[C@H]3[C@@H]1CC[C@@H]2O[C@@H]1O[C@H](C(=O)O)[C@@H](O)[C@H](O)[C@H]1O` [ESTRADIOL 17B GLUCURONIDE], the Activity entry was “substrate [+]”.

Take `C[C@]12CC[C@@H]3c4ccc(OS(=O)(=O)O)cc4CC[C@H]3[C@@H]1CCC2=O` [ESTRONE SULFURIC ACID]: the Activity result was “substrate [+]”.

For the molecule `C[C@H](CCC(=O)NCC(=O)O)[C@H]1CC[C@H]2[C@@H]3[C@H](O)C[C@@H]4C[C@H](O)CC[C@]4(C)[C@H]3C[C@H](O)[C@]12C` [GLYCOCHOLIC ACID], the Activity result is “is not a substrate [-]”.

On to `CCCCC/C=C\C\C=C/C=C/C=C/[C@@H](SC[C@@H](NC(=O)CC[C@H](N)C(=O)O)C(=O)NCC(=O)O)[C@@H](O)CCCC(=O)O` [LEUKOTRIEN C4], for which the Activity entry is “is not a substrate [-]”.

`N[C@@H](Cc1cc(I)c(Oc2ccc(O)c(I)c2)c(I)c1)C(=O)O` [LIOTHYRONINE]: the Activity entry was “substrate [+]”.

For `CN(Cc1cnc2nc(N)nc(N)c2n1)c1ccc(C(=O)N[C@@H](CCC(=O)O)C(=O)O)cc1` [METHOTREXATE], the Activity result is “is not a substrate [-]”.

With `C[C@@H]1O[C@@H](O[C@H]2C[C@@H](O)[C@]3(CO)[C@H]4[C@H](O)C[C@]5(C)[C@@H](C6=CC(=O)OC6)CC[C@]5(O)[C@@H]4CC[C@]3(O)C2)[C@H](O)[C@H](O)[C@H]1O` [OUABAIN], the Activity entry was “is not a substrate [-]”.

Take `C[C@]12CC[C@H](OS(=O)(=O)O)CC1=CC[C@@H]1[C@@H]2CC[C@]2(C)C(=O)CC[C@@H]12` [PRASTERONE SULFURIC ACID]: the Activity entry is “is not a substrate [-]”.

`O=C1OC(c2ccc(O)c(S(=O)(=O)[O-])c2)(c2ccc(O)c(S(=O)(=O)[O-])c2)c2c(Br)c(Br)c(Br)c(Br)c21.[Na+].[Na+]` [SULFOBROMOPHTHALEIN SODIUM]: the Activity result is “substrate [+]”.

Substrate in another series: N[C@@H](Cc1cc(I)c(Oc2cc(I)c(O)c(I)c2)c(I)c1)C(=O)O
The series is described as §1. It counts as functional, cell-based.
Settings: not given
On to B1, for which the Km came out at 0.0904 µM.

Substrate in the next series: N[C@@H](Cc1ccc(Oc2cc(I)c(O)c(I)c2)c(I)c1)C(=O)O
The series is described as §1. It is filed as functional, cell-based.
Settings: not given
Take B1: the Km came out at 0.128 µM.
